Like-named read-outs stand apart in the source and are kept apart here.
Assays:
[1] = Metabolic stability of test compounds (HLM15'); type: in vitro ADME, human; conditions: human liver microsomes 1 mg/ml, 5 μM test compound, 15 min; for recovery at 15 min, 5 μM: pH 7.4, read-out: Metabolic stability (HLM, % recovery after 15')
Description: Human liver tissue is rinsed in ice-cold 0.1 M Tris-HCl (pH 7.4) buffer to wash excess blood. Tissue is then blotted dry, weighed and chopped coarsely using surgical scissors. The tissue pieces are homogenized in 3 volumes of ice-cold 0.1 M phosphate buffer (pH 7.4) using either a Potter-S (Braun, Italy) equipped with a Teflon pestle or a Sorvall Omni-Mix homogenizer, for 7×10 sec. In both cases, the vessel is kept in/on ice during the homogenization process. Tissue homogenates are centrifuged at 9000×g for 20 min at 4° C. using a Sorvall centrifuge or Beckman Ultracentrifuge. The resulting supernatant can be stored at −80° C. and is designated ‘S9’. The S9 fraction is centrifuged at 100,000×g for 60 min at 4° C. using a Beckman ultracentrifuge. The resulting supernatant is carefully aspirated, aliquoted and designated ‘cytosol’. The pellet is re-suspended in 0.1 M phosphate buffer (pH 7.4) in a final volume of 1 ml per 0.5 g original tissue weight and designated ‘microsomes’. All sub-cellular fractions are aliquoted, immediately frozen in liquid nitrogen and stored at −80° C. until use.
Heat-inactivated (10 min at 95° C.) ‘S9’ or microsomes were used for blank experiments. […] The reaction was incubated for 0 or 15 min. Next, the reaction was stopped by addition of 2 volumes of DMSO (or acetonitrile). Samples were centrifuged (10 min, 900×g) and analyzed by LC-MS.

[2] = system: wild-type HIV-1IIIB strain; experiment: Antiviral activity, MT4 LTR-EGFP cellular assay; type: cell-based; design: key to Antiviral activity IIIB (pEC50): pEC50 = -log10(EC50); conditions: for EC50: read-out: Antiviral activity IIIB (pEC50) (converted)
Experimental: (§1) Assay 1 &2: Antiviral Activity/Toxicity
The compounds of the present invention were tested for antiviral activity in a cellular assay, which was performed according to the following procedure.
The human T-cell line MT4 is engineered with Green Fluorescent Protein (GFP) and an HIV-specific promoter, HIV-1 long terminal repeat (LTR). This cell line is designated MT4 LTR-EGFP, and can be used for the in vitro evaluation of anti-HIV activity of investigational compounds. In HIV-1 infected cells, the Tat protein is produced which upregulates the LTR promotor and finally leads to stimulation of the GFP reporter production, allowing measuring ongoing HIV-infection fluorometrically.
(§2) The ratio of CC50 to EC50 is defined as the selectivity index (SI) and is an indication of the selectivity of the anti-HIV activity of the inhibitor. The ultimate monitoring of HIV-1 infection and cytotoxicity is done using a scanning microscope. Image analysis allows very sensitive detection of viral infection. Measurements are done before cell necrosis, which usually takes place about five days after infection, in particular measurements are performed three days after infection.
(§3) A pEC50 value corresponds to −log10(EC50). A pCC50 value corresponds to −log10(CC50).

[3] = system: MT4 CMV-EGFP cells; experiment: Toxicity, mock-infected MT4 CMV-EGFP cells; type: cell-based, human
Description: as §1
(§4) Analogously, MT4 cells are engineered with GFP and the constitutional cytomegalovirus (CMV) promotor. […] Cytotoxic investigational compounds reduce GFP levels of mock-infected MT4 CMV-EGFP cells.
as §2, §3

[4] = target: T1, CYP2C19 (Homo sapiens, UniProt P33261); experiment: CYP450 inhibition CDNA-CYP2C19-CEC; conditions: 10 μM test compound, substrate CEC 25 μM, 30 min
Experimental: (§6) Inhibition of the metabolism of test compounds by different CYP P450 isoenzymes was determined using E. coli expressed proteins (3A4, 2C9, 2D6, 1A2, and 2C19) that convert their specific substrates into a fluorescent molecule (Table 6). This fluorescent molecule was measured using a fluorescent plate reader (Victor2 (Wallac) or Fluoroskan (Labsystems)). […] CYP P450 enzymes were prepared in house or commercially bought and stored at −80° C.
(§7) The assay was performed in black 96 well Costar plates. Test compounds were added to a CYP P450 enzyme solution in the presence of an NADPH generating system. After 5 min of preincubation at 37° C., the freshly prepared, phosphate buffered (pH 7.4) substrate solution was added. Known CYP P450 inhibitors were used as positive controls, negative controls were run without CYP P450 enzyme. […] Reaction mixtures were incubated at 37° C. for 30 min (CYP3A4-BFC), 30 min (CYP3A4-BQ), 10 min (CYP3A4-DBF), 15 min (CYP1A2-CEC), 30 min (CYP2C9-MFC, CYP2C19-CEC), or 45 min (CYP2D6-AMMC), respectively. Then, the reaction was stopped by the addition of 200 μl acetonitrile, and the fluorescent signal was detected.
(§8) Calculation of CYP P450 isoenzyme inhibition (% inh.):
(§9) % activity=(100/(average positive control−average negative control))×(average sample−average negative control)

[5] = target: T1, CYP2C19; experiment: in vitro; conditions: E. coli expressed CYP2C19, pH 7.4, probe CEC 25 μM
Experimental: as §6, §7, §8, §9

[6] = target: T2, CYP1A2 (Homo sapiens, UniProt P05177); experiment: in vitro; conditions: E. coli expressed CYP1A2, pH 7.4, probe CEC 5 μM
T2 sequence (P05177 1-516): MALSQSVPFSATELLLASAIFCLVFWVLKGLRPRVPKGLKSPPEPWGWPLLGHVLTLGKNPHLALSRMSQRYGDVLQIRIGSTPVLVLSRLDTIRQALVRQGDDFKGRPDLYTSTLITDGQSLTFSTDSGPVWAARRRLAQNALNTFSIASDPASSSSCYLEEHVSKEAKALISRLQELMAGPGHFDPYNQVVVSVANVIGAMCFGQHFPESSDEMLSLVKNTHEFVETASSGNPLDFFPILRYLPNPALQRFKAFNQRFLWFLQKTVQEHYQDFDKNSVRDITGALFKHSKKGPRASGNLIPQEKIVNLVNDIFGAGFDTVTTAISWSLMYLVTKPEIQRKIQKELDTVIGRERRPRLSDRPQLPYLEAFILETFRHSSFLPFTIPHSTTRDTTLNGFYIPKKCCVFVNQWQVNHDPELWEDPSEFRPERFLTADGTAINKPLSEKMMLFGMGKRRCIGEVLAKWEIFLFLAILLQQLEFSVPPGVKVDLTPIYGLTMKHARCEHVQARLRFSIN
Experimental: as §6, §7, §8, §9

[7] = target: CYP2C9 (Homo sapiens, UniProt P11712); experiment: in vitro; conditions: for inhibition at 30 min, 10 μM: human, pH 7.4
Description: (§5) Assay 4: CYP450 Inhibition

[8] = target: CYP2D6 (Homo sapiens, UniProt P10635); experiment: in vitro; conditions: pH 7.4
Experimental: as §6, §7, §8, §9

[9] = Toxicity, mock-infected MT4 CMV-EGFP cells; type: cell-based, human; conditions: human; for CC50 at 3 days: mock-infected MT4 CMV-EGFP cells, read-out: Toxicity MT4 (pCC50) (converted)
Description: as §1, §4, §2, §3

[10] = target: T3, CYP3A4 (Homo sapiens, UniProt P08684); experiment: CYP450 inhibition CDNA-CYP3A4-BFC; conditions: for Cyp450 inhibition: CDNA-CYP3A4-BFC (% inhibition): 10 μM test compound, substrate BFC 150 μM, 30 min
Description: as §5

[11] = target: T3, CYP3A4; experiment: CYP450 inhibition CDNA-CYP3A4-BQ; conditions: for Cyp450 inhibition: CDNA-CYP3A4-BQ (% inhibition): 10 μM test compound, substrate BQ 60 μM, 30 min
Description: as §5

[12] = target: T3, CYP3A4; experiment: in vitro; conditions: human, pH 7.4
Description: as §5

[13] = wild-type HIV-1 IIIB, MT4 LTR-EGFP cells, three days after infection
[14] = Human immunodeficiency virus 1, 72 h, wild-type HIV-1 IIIB, MT4 LTR-EGFP cells, three days after infection

Sequence of CYP2D6 (P10635 whole entry): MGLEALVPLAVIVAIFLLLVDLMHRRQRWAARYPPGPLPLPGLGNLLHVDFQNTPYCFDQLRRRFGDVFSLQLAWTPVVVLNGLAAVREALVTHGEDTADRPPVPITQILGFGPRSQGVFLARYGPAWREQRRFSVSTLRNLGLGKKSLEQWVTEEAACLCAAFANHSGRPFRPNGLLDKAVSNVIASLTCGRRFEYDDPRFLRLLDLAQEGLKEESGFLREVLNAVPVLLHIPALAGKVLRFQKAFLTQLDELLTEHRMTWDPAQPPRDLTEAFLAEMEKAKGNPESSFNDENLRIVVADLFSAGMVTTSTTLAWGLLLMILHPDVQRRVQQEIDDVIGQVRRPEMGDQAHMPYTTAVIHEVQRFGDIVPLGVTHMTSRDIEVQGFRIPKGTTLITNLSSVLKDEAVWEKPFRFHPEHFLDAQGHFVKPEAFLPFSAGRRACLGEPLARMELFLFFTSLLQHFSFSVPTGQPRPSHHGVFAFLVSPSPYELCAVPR
T3 sequence (P08684 whole entry): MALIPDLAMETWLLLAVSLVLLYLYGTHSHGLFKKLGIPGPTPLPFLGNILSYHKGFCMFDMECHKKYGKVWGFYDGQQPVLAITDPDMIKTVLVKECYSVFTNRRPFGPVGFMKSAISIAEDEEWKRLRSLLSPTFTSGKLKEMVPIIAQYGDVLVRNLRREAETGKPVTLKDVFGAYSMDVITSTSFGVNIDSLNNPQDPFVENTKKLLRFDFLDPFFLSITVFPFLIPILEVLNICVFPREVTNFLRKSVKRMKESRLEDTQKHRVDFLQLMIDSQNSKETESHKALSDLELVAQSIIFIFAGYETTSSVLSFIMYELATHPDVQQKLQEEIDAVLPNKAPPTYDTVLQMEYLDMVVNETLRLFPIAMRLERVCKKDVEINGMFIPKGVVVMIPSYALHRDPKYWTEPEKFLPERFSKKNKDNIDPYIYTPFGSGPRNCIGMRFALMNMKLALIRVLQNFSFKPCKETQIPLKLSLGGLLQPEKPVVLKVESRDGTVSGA
Sequence of CYP2C9 (P11712 whole entry): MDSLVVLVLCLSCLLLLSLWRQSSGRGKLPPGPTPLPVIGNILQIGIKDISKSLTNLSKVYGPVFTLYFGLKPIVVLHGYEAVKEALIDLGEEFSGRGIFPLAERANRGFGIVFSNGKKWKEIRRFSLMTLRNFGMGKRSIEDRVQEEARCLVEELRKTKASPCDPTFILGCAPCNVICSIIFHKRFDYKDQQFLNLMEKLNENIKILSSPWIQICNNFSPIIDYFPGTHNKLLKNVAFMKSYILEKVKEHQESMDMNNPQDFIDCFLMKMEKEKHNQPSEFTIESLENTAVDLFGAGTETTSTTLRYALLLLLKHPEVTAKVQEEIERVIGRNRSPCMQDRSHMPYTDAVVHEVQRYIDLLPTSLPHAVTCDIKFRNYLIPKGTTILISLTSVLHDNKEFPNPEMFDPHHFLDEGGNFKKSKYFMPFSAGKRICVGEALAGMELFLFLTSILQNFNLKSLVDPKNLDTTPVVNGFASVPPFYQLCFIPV
T1 sequence (P33261 whole entry): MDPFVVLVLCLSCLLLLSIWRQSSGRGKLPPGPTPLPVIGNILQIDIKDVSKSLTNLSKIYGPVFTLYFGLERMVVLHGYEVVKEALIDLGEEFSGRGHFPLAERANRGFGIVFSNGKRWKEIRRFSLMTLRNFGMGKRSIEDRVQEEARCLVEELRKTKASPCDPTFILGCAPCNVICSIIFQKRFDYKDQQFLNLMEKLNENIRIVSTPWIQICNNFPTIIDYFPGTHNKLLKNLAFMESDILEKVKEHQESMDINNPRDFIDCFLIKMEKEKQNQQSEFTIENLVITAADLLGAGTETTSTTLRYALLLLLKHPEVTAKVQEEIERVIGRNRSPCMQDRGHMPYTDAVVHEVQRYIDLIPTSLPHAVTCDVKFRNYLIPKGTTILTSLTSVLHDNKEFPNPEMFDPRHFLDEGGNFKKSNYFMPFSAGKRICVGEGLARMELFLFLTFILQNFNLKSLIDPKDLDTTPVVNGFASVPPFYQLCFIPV

## CC(C)CN(C[C@@H](O)[C@H](Cc1ccccc1)NC(=O)OCc1cncs1)C(=O)c1ccc2nc(N3CCCC3)oc2c1 [Compound C2]
[1]
  Metabolic stability (HLM, % recovery after 15'): 78%
[2]; [13]
  Antiviral activity IIIB (pEC50): <4.00
[3]
  Toxicity MT4 (pCC50): <4.00
[4]
  Cyp450 inhibition: CDNA-CYP2C19-CEC (% inhibition): 92%

## CCN(C)c1nc2ccc(C(=O)N(CC3CCCCC3)C[C@@H](O)[C@H](Cc3ccccc3)NC(=O)OCc3cncs3)cc2o1 [Compound C32, Thiazol-5-ylmethyl (2S,3R)-4-(N-(cyclohexylmethyl)-2-(ethyl(methyl)-amino)benzo[d]oxazole-6-carboxamido)-3-hydroxy-1-phenylbutan-2-yl-carbamate]
[5]
  inhibition at 30 min, 10 μM: 100%
[1]
  recovery at 15 min, 5 μM: 54%
[6]
  inhibition at 15 min, 10 μM: 27%
[7]
  inhibition at 30 min, 10 μM: 98%
[2]; [14]
  EC50: 20.9 µM
[8]
  inhibition at 45 min, 10 μM: 87%
[9]
  CC50 at 3 days: 21.4 µM

## CC(C)(O)CN(C[C@@H](O)[C@H](Cc1ccccc1)NC(=O)OCc1cncs1)C(=O)c1ccc2nc(N3CCCC3)oc2c1 [Compound C28]
[10]
  Cyp450 inhibition: CDNA-CYP3A4-BFC (% inhibition): 98%
[11]
  Cyp450 inhibition: CDNA-CYP3A4-BQ (% inhibition): 79%
[1]
  Metabolic stability (HLM, % recovery after 15'): 72%
[7]
  Cyp450 inhibition: CDNA-CYP2C9-MFC (% inhibition): 99%
[2]; [13]
  Antiviral activity IIIB (pEC50): <4.00
[3]
  Toxicity MT4 (pCC50): <4.00
[4]
  Cyp450 inhibition: CDNA-CYP2C19-CEC (% inhibition): 83%

## CN(C)CCN(C[C@@H](O)[C@H](Cc1ccccc1)NC(=O)OCc1cncs1)C(=O)c1ccc2nc(N3CCCC3)oc2c1 [Compound C17]
[10]
  Cyp450 inhibition: CDNA-CYP3A4-BFC (% inhibition): 95%
[11]
  Cyp450 inhibition: CDNA-CYP3A4-BQ (% inhibition): 79%
[1]
  Metabolic stability (HLM, % recovery after 15'): 55%
[7]
  Cyp450 inhibition: CDNA-CYP2C9-MFC (% inhibition): 34%
[2]; [13]
  Antiviral activity IIIB (pEC50): <4.00
[3]
  Toxicity MT4 (pCC50): <4.00
[4]
  Cyp450 inhibition: CDNA-CYP2C19-CEC (% inhibition): 46%

## O=C(N[C@@H](Cc1ccccc1)[C@H](O)CN(CC1CCC(F)(F)CC1)C(=O)c1ccc2nc(N3CCCC3)oc2c1)OCc1cncs1 [Compound C47]
[10]
  Cyp450 inhibition: CDNA-CYP3A4-BFC (% inhibition): 95%
[11]
  Cyp450 inhibition: CDNA-CYP3A4-BQ (% inhibition): 85%
[1]
  Metabolic stability (HLM, % recovery after 15'): 78%
[7]
  Cyp450 inhibition: CDNA-CYP2C9-MFC (% inhibition): 98%
[2]; [13]
  Antiviral activity IIIB (pEC50): =4.53
[3]
  Toxicity MT4 (pCC50): =4.38
[4]
  Cyp450 inhibition: CDNA-CYP2C19-CEC (% inhibition): 96%

## CCc1nc2ccc(C(=O)N(CC(C)C)C[C@@H](O)[C@H](Cc3ccccc3)NC(=O)OCc3cncs3)cc2o1 [Compound C39, Thiazol-5-ylmethyl (2S,3R)-4-(2-ethyl-N-isobutylbenzo[d]oxazole-6-carboxamido)-3-hydroxy-1-phenylbutan-2-ylcarbamate]
[10]; human, E. coli expressed CYP3A4, pH 7.4, probe BFC 150 μM
  inhibition at 30 min, 10 μM: 95%
[11]; human, E. coli expressed CYP3A4, pH 7.4, probe BQ 60 μM
  inhibition at 30 min, 10 μM: 77%
[5]
  inhibition at 30 min, 10 μM: 87%
[6]
  inhibition at 15 min, 10 μM: 2%
[12]
  inhibition at 10 min, 10 μM: 92%
[7]
  inhibition at 30 min, 10 μM: 95%
[2]; Human immunodeficiency virus 1, IIIB, 72 h
  EC50: 87.1 µM
[8]
  inhibition at 45 min, 10 μM: 51%
[9]
  CC50 at 3 days: > 100 µM

## CN(C[C@@H](O)[C@H](Cc1ccccc1)NC(=O)OCc1cncs1)C(=O)c1ccc2nc(N3CCCC3)oc2c1 [Compound C21]
[10]
  Cyp450 inhibition: CDNA-CYP3A4-BFC (% inhibition): 96%
[11]
  Cyp450 inhibition: CDNA-CYP3A4-BQ (% inhibition): 81%
[1]
  Metabolic stability (HLM, % recovery after 15'): 71%
[7]
  Cyp450 inhibition: CDNA-CYP2C9-MFC (% inhibition): 100%
[2]; [13]
  Antiviral activity IIIB (pEC50): <4.00
[3]
  Toxicity MT4 (pCC50): <4.00
[4]
  Cyp450 inhibition: CDNA-CYP2C19-CEC (% inhibition): 90%

## O=C(N[C@@H](Cc1ccccc1)[C@H](O)CN(CCN1CCOCC1)C(=O)c1ccc2nc(N3CCCC3)oc2c1)OCc1cncs1 [Compound C20]
[10]
  Cyp450 inhibition: CDNA-CYP3A4-BFC (% inhibition): 96%
[11]
  Cyp450 inhibition: CDNA-CYP3A4-BQ (% inhibition): 81%
[1]
  Metabolic stability (HLM, % recovery after 15'): 65%
[7]
  Cyp450 inhibition: CDNA-CYP2C9-MFC (% inhibition): 72%
[2]; [13]
  Antiviral activity IIIB (pEC50): <4.00
[3]
  Toxicity MT4 (pCC50): <4.00
[4]
  Cyp450 inhibition: CDNA-CYP2C19-CEC (% inhibition): 65%

## CCN(C)c1nc2ccc(C(=O)N(CC(C)C)C[C@@H](O)[C@H](Cc3ccc(F)cc3)NC(=O)OCc3cncs3)cc2o1 [Compound C53, Thiazol-5-ylmethyl (2S,3R)-4-(2-(ethyl(methyl)amino)-N-isobutylbenzo[d]-oxazole-6-carboxamido)-1-(4-fluorophenyl)-3-hydroxybutan-2-ylcarbamate]
[5]
  inhibition at 30 min, 10 μM: 95%
[1]
  recovery at 15 min, 5 μM: 71%
[6]
  inhibition at 15 min, 10 μM: 0%
[7]
  inhibition at 30 min, 10 μM: 96%
[2]; [14]
  EC50: 46.8 µM
[8]
  inhibition at 45 min, 10 μM: 61%
[9]
  CC50: 50.1 µM

## O=C(N[C@@H](Cc1ccccc1)[C@H](O)CN(CCN1CCCC1)C(=O)c1ccc2nc(N3CCCC3)oc2c1)OCc1cncs1 [Compound C13]
[10]
  Cyp450 inhibition: CDNA-CYP3A4-BFC (% inhibition): 91%
[11]
  Cyp450 inhibition: CDNA-CYP3A4-BQ (% inhibition): 76%
[1]
  Metabolic stability (HLM, % recovery after 15'): 81%
[7]
  Cyp450 inhibition: CDNA-CYP2C9-MFC (% inhibition): 42%
[2]; [13]
  Antiviral activity IIIB (pEC50): =4.24
[3]
  Toxicity MT4 (pCC50): <4.00
[4]
  Cyp450 inhibition: CDNA-CYP2C19-CEC (% inhibition): 46%

## CC(C)(C)CN(C[C@@H](O)[C@H](Cc1ccccc1)NC(=O)OCc1cncs1)C(=O)c1ccc2nc(N3CCCC3)oc2c1 [Compound C37]
[10]
  Cyp450 inhibition: CDNA-CYP3A4-BFC (% inhibition): 97%
[11]
  Cyp450 inhibition: CDNA-CYP3A4-BQ (% inhibition): 79%
[1]
  Metabolic stability (HLM, % recovery after 15'): 71%
[7]
  Cyp450 inhibition: CDNA-CYP2C9-MFC (% inhibition): 96%
[2]; [13]
  Antiviral activity IIIB (pEC50): =4.35
[3]
  Toxicity MT4 (pCC50): =4.31
[4]
  Cyp450 inhibition: CDNA-CYP2C19-CEC (% inhibition): 92%

Source: patent US8350048B2, “Amide compounds as boosters of antivirals” (Janssen R&D Ireland, priority 2007, dated 2013)
